Read-outs that look alike come from different tables or passages of the source.
Legend:
c-Myc/Max/Ebox DNA = molecular target: T1, c-Myc/Max/Ebox DNA (Homo sapiens, UniProt P01106); assay: c-Myc/Max/Ebox DNA AlphaScreen Assay; type: binding; conditions: calculated IC50 class
T1 construct: his6 (cleaved yes)
Method in brief: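 Compounds were preincubated with free c-Myc (20 nM), biotinylated single-Ebox DNA (10 nM) and Ni acceptor beads before his6-Max (5 nM) and streptavidin donor beads were added. Buffer was 50 mM HEPES pH 8.0, 150 mM NaCl, BSA, Tween20, glycogen and DTT, with DMSO ≤2%. After 2 h incubation, AlphaScreen signal was read at 680 nm excitation and 520–620 nm emission.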

[1] = tested on: human small lung cancer cell line H2171; assay: Cell Viability Assay (ATPlite); type: cell-based; conditions: H2171 cells, three days, ATPlite, calculated IC50 class, read-out: H2171 Activity
Method in brief: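 H2171 cells were plated at 20,000 cells/mL and dosed immediately by pin transfer with a 10-point dose series in DMSO. After three days at 37° C, ATPlite luminescence served as the viability readout.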

[2] = Homo sapiens, NCI-H2171, 72 h, Table 3, compounds of FIG. 2
[3] = Homo sapiens, NCI-H2171, 72 h, Table 2, compounds of FIG. 1

T1 sequence (P01106 whole entry): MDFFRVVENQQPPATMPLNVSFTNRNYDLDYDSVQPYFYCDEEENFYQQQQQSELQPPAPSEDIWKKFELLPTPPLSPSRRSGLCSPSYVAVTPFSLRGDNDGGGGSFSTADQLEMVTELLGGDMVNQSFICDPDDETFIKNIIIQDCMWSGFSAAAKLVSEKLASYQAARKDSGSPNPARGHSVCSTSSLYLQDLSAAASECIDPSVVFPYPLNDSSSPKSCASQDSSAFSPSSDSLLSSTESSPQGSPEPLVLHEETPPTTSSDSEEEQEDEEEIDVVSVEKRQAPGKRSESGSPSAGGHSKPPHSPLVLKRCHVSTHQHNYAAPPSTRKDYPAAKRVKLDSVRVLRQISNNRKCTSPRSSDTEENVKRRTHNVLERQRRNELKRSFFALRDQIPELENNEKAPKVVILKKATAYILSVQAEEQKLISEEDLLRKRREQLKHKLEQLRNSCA

Q: How did the IC50 (c-Myc/Max/Ebox DNA; Table 3, compounds of FIG. 2) turn out when `CC(=O)N(C)c1sc2c(c1-c1nc3ccccc3s1)CCNC2` [Compound 232, N-(3-(benzo[d]thiazol-2-yl)-4,5,6,7-tetrahydrothieno[2,3-c]pyridin-2-yl)-N-methylacetamide] was run?
A: > 10000 nM

Q: And the IC50 [1, 2]?
A: > 10000 nM

Q: What does the source list for `COCCNCCC(=O)Nc1sc2c(c1-c1nc3ccccc3s1)CCNC2` [Compound 134, N-(3-(benzo[d]thiazol-2-yl)-4,5,6,7-tetrahydrothieno[2,3-c]pyridin-2-yl)-3-((2-methoxyethyl)amino)propanamide]?
A: IC50 (c-Myc/Max/Ebox DNA; Table 2, compounds of FIG. 1): < 300 nM; IC50 [1, 3]: < 300 nM

Q: Which results are given for `COCCNCCC(=O)Nc1sc2c(c1-c1nc3cc(-c4cnn(C)c4)ccc3s1)CC(C)NC2C` (single isomer, unassigned) [Compound 564, N-(5,7-Dimethyl-3-(5-(1-methyl-1H-pyrazol-4-yl)benzo[d]thiazol-2-yl)-4,5,6,7-tetrahydrothieno[2,3-c]pyridin-2-yl)-3-((2-methoxyethyl)amino)propanamide]?
A: IC50 (c-Myc/Max/Ebox DNA; Table 2, compounds of FIG. 1): < 300 nM; IC50 [1, 3]: < 300 nM

Q: Which results are given for `CC(=O)Nc1sc2c(c1-c1nc3cc(F)ccc3s1)CCNC2` [Compound 203, N-(3-(5-fluorobenzo[d]thiazol-2-yl)-4,5,6,7-tetrahydrothieno[2,3-c]pyridin-2-yl)acetamide]?
A: IC50 (c-Myc/Max/Ebox DNA; Table 3, compounds of FIG. 2): 1000 to 10000 nM; IC50 [1, 2]: 1000 to 10000 nM

Q: `COCCNCCC(=O)Nc1sc2c(c1-c1nc3cc(-c4ccncc4)ccc3s1)CC(C)NC2` (single isomer, unassigned) [Compound 549, 3-((2-Methoxyethyl)amino)-N-(5-methyl-3-(5-(pyridin-4-yl)benzo[d]thiazol-2-yl)-4,5,6,7-tetrahydrothieno[2,3-c]pyridin-2-yl)propanamide] was tested. Which IC50 (c-Myc/Max/Ebox DNA; Table 2, compounds of FIG. 1) did it give?
A: < 300 nM

Q: And the IC50 [1, 3]?
A: < 300 nM

Q: How did the IC50 (c-Myc/Max/Ebox DNA; Table 2, compounds of FIG. 1) turn out when `CC[C@@H](C)NCCC(=O)Nc1sc2c(c1-c1nc3ccccc3s1)CCNC2` [Compound 153, (R)—N-(3-(benzo[d]thiazol-2-yl)-4,5,6,7-tetrahydrothieno[2,3-c]pyridin-2-yl)-3-(sec-butylamino)propanamide] was run?
A: 300 to 1000 nM

Q: And the IC50 [1, 3]?
A: < 300 nM

Q: How did the IC50 (c-Myc/Max/Ebox DNA; Table 2, compounds of FIG. 1) turn out when `CCC(C)NCCC(=O)Nc1sc2c(c1-c1nc3cc4c(cc3s1)OCO4)CCN(C(C)C)C2` (stereo not drawn) [Compound 563, N-(3-([1,3]Dioxolo[4′,5′:4,5]benzo[1,2-d]thiazol-6-yl)-6-isopropyl-4,5,6,7-tetrahydrothieno[2,3-c]pyridin-2-yl)-3-(sec-butylamino)propanamide] was run?
A: < 300 nM

Q: What about the IC50 [1, 3] of the same compound?
A: < 300 nM

Q: With `CC(C)CNCCC(=O)Nc1sc2c(c1-c1nc3ccccc3s1)CCN(C(C)C)C2` [Compound 552, N-(3-(Benzo[d]thiazol-2-yl)-6-isopropyl-4,5,6,7-tetrahydrothieno[2,3-c]pyridin-2-yl)-3-(isobutylamino)propanamide] as the compound, how does the IC50 (c-Myc/Max/Ebox DNA; Table 2, compounds of FIG. 1) read?
A: < 300 nM

Q: What about the IC50 [1, 3] of the same compound?
A: < 300 nM

Q: `CCCNCCC(=O)Nc1sc2c(c1-c1nc3ccccc3s1)CCN(C(C)C)C2` [Compound 539, N-(3-(Benzo[d]thiazol-2-yl)-6-isopropyl-4,5,6,7-tetrahydrothieno[2,3-c]pyridin-2-yl)-3-(propylamino)propanamide] was tested. Which IC50 (c-Myc/Max/Ebox DNA; Table 2, compounds of FIG. 1) did it give?
A: 300 to 1000 nM

Q: And the IC50 ([1]; Table 2, compounds of FIG. 1)?
A: 300 to 1000 nM

Q: What does the source list for `COCCNCCC(=O)Nc1sc2c(c1-c1nc3cc(-c4cnn(C)c4)ccc3s1)CC(C)NC2C` (single isomer, unassigned) [Compound 565, N-(5,7-Dimethyl-3-(5-(1-methyl-1H-pyrazol-4-yl)benzo[d]thiazol-2-yl)-4,5,6,7-tetrahydrothieno[2,3-c]pyridin-2-yl)-3-((2-methoxyethyl)amino)propanamide]?
A: IC50 (c-Myc/Max/Ebox DNA; Table 2, compounds of FIG. 1): < 300 nM; IC50 ([1]; Table 2, compounds of FIG. 1): < 300 nM

Q: With `CCC(C)NCCC(=O)Nc1sc2c(c1-c1nc3cc(C)c(C)cc3s1)CCNC2` (stereo not drawn) [Compound 576, 3-(sec-Butylamino)-N-(3-(5,6-dimethylbenzo[d]thiazol-2-yl)-4,5,6,7-tetrahydrothieno[2,3-c]pyridin-2-yl)propanamide] as the compound, how does the IC50 (c-Myc/Max/Ebox DNA; Table 2, compounds of FIG. 1) read?
A: < 300 nM

Q: What about the IC50 [1, 3] of the same compound?
A: < 300 nM

Q: Which results are given for `COCCNCCC(=O)Nc1sc2c(c1-c1nc3ccc(-c4ccc(C#N)nc4)cc3s1)CCNC2` [compound 391]?
A: IC50 (c-Myc/Max/Ebox DNA; Table 2, compounds of FIG. 1): < 300 nM; IC50 [1, 3]: < 300 nM

Q: How did the IC50 (c-Myc/Max/Ebox DNA; Table 2, compounds of FIG. 1) turn out when `CC(C)NCCC(=O)Nc1sc2c(c1-c1nc3ccc(-c4ccncc4)cc3s1)CCNC2` [compound 192] was run?
A: < 300 nM

Q: And the IC50 [1, 3]?
A: < 300 nM

Q: With `COCCNCCC(=O)Nc1sc2c(c1-c1nc3cc4c(cc3s1)OCO4)CCNC2` [Compound 556, N-(3-([1,3]Dioxolo[4′,5′:4,5]benzo[1,2-d]thiazol-6-yl)-4,5,6,7-tetrahydrothieno[2,3-c]pyridin-2-yl)-3-((2-methoxyethyl)amino)propanamide] as the compound, how does the IC50 (c-Myc/Max/Ebox DNA; Table 2, compounds of FIG. 1) read?
A: < 300 nM

Q: And the IC50 [1, 3]?
A: < 300 nM

Q: What does the source list for `O=C(CCNCCc1cccnc1)Nc1sc2c(c1-c1nc3ccccc3s1)CCNC2` [Compound 136, N-(3-(benzo[d]thiazol-2-yl)-4,5,6,7-tetrahydrothieno[2,3-c]pyridin-2-yl)-3-((2-(pyridin-3-yl)ethyl)amino) propanamide]?
A: IC50 (c-Myc/Max/Ebox DNA; Table 2, compounds of FIG. 1): 1000 to 10000 nM; IC50 [1, 3]: 300 to 1000 nM

Q: Which IC50 (c-Myc/Max/Ebox DNA; Table 2, compounds of FIG. 1) does the source give for `C=Cc1cccc2sc(-c3c(NC(=O)CCNCCOC)sc4c3CCNC4)nc12` [Compound 583, 3-(2-methoxyethylamino)-N-(3-(4-vinylbenzo[d]thiazol-2-yl)-4,5,6,7-tetrahydrothieno[2,3-c]pyridin-2-yl)propanamide bis(2,2,2-trifluoroacetate)] here?
A: < 300 nM

Q: What about the IC50 [1, 3] of the same compound?
A: < 300 nM

Q: With `COCCNCCC(=O)Nc1sc2c(c1-c1nc3cc(-c4ccncc4)ccc3s1)C[C@H](C)N[C@@H]2C` [Compound 532, N-((5S,7R)-5,7-dimethyl-3-(5-(pyridin-4-yl)benzo[d]thiazol-2-yl)-4,5,6,7-tetrahydrothieno[2,3-c]pyridin-2-yl)-3-((2-methoxyethyl)amino)propanamide] as the compound, how does the IC50 (c-Myc/Max/Ebox DNA; Table 2, compounds of FIG. 1) read?
A: > 10000 nM

Q: What about the IC50 [1, 3] of the same compound?
A: 300 to 1000 nM

Q: `CC(=O)Nc1sc2c(c1-c1nc3ccccc3s1)CCNC2` [Compound 202, N-(3-(benzo[d]thiazol-2-yl)-4,5,6,7-tetrahydrothieno[2,3-c]pyridin-2-yl)acetamide] was tested. Which IC50 (c-Myc/Max/Ebox DNA; Table 3, compounds of FIG. 2) did it give?
A: 1000 to 10000 nM

Q: What about the IC50 [1, 2] of the same compound?
A: < 300 nM

Q: How did the IC50 (c-Myc/Max/Ebox DNA; Table 2, compounds of FIG. 1) turn out when `COCCNCCC(=O)Nc1sc2c(c1-c1nc3cc(-c4ccncc4)ccc3s1)CCNC2C` (single isomer, unassigned) [Compound 548, 3-((2-Methoxyethyl)amino)-N-(7-methyl-3-(5-(pyridin-4-yl)benzo[d]thiazol-2-yl)-4,5,6,7-tetrahydrothieno[2,3-c]pyridin-2-yl)propanamide] was run?
A: < 300 nM

Q: And the IC50 ([1]; Table 2, compounds of FIG. 1)?
A: < 300 nM

Q: Which IC50 (c-Myc/Max/Ebox DNA; Table 2, compounds of FIG. 1) does the source give for `CC(C)NCCC(=O)Nc1sc2c(c1-c1nc3cc(-c4cnn(C)c4)ccc3s1)CCNC2` [compound 161] here?
A: < 300 nM

Q: And the IC50 [1, 3]?
A: < 300 nM

Q: For `CCC(C)NCCC(=O)Nc1sc2c(c1-c1nc3cc(-c4ccncc4)ccc3s1)CCNC2C` [Compound 590, 3-(((S)-sec-butyl)amino)-N—((R)-7-methyl-3-(5-pyridin-4-yl)benzo[d]thiazol-2-yl)-4,5,6,7-tetrahydrothieno[2,3-c]pyridin-2-yl)propanamide], which IC50 (c-Myc/Max/Ebox DNA; Table 2, compounds of FIG. 1) is on record?
A: < 300 nM

Q: And the IC50 [1, 3]?
A: < 300 nM

— US10787444B2, “Compounds for the modulation of myc activity” (Syros Pharmaceuticals, Inc., priority 2015, dated 2020)
